Here are results for one cell line from the supplement of paper PMC10307832.

Assay in all cases: relative viability (nuclei count vs DMSO), 5 days (fraction); higher = more cells survive
Compound in experiment [1]: C[C@]1(O)C[C@@H](c2nc(-c3ccc4ccc(-c5ccccc5)nc4c3)c3c(N)nccn32)C1 [Linsitinib] + Cc1nc(Nc2ncc(C(=O)Nc3c(C)cccc3Cl)s2)cc(N2CCN(CCO)CC2)n1 [Dasatinib] (partner 0.075 µM)
In a few lines: (§1)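 Lung cancer cell lines were seeded in 1536-well plates and dosed by pin tool the next day, with either a single drug or a fixed anchor-drug dose combined with five library-drug doses (not always all listed) spaced in √10 steps. Five days later, one step fixed the cells and stained their nuclei (final 0.05% Triton X-100, 1% formaldehyde, 1 ug/ml Hoechst), and nuclei were counted on 4× images. Relative viability is the nuclei count in treated wells divided by the count in vehicle wells, and each value is the median of duplicate plates.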

Compound in experiment [2]: Cc1ccc(C(=O)N(CCCN)[C@@H](c2nc3cc(Cl)ccc3c(=O)n2Cc2ccccc2)C(C)C)cc1 [Ispinesib] + N=C(N)NC(=N)NCCc1ccccc1 [Phenformin] (partner 250 µM)
The method in brief: as §1

Compound in experiment [3]: C[C@]1(O)C[C@@H](c2nc(-c3ccc4ccc(-c5ccccc5)nc4c3)c3c(N)nccn32)C1 [Linsitinib] + C[C@@H](Oc1cc(-c2cnn(C3CCNCC3)c2)cnc1N)c1c(Cl)ccc(F)c1Cl [Crizotinib] (partner 1 µM)
The method in brief: as §1

Compound in experiment [4]: C[C@]1(O)C[C@@H](c2nc(-c3ccc4ccc(-c5ccccc5)nc4c3)c3c(N)nccn32)C1 [Linsitinib] + O=C(CCCCCCC(=O)Nc1ccccc1)NO [Vorinostat] (partner 1 µM)
The method in brief:
as §1

Consider UMC-11, for which the relative viability in experiment [1] (first compound 0.01 µM) is 0.462; in experiment [1] (first compound 0.03162 µM), 0.44; in experiment [1] (first compound 0.1 µM), 0.501; in experiment [1] (first compound 1 µM), 0.438; in experiment [2] (first compound 0.001 µM), 0.346; in experiment [2] (first compound 0.003162 µM) it was 0.327. The relative viability in experiment [2] (first compound 0.01 µM) is 0.286; in experiment [2] (first compound 0.03162 µM), 0.179; in experiment [2] (first compound 0.1 µM), 0.193; in experiment [3] (first compound 0.01 µM) it was 0.698; in experiment [3] (first compound 0.03162 µM), 0.448; in experiment [3] (first compound 0.1 µM), 0.642. The relative viability is 0.549 in experiment [3] (first compound 1 µM); 0.369 in experiment [4] (first compound 0.01 µM); 0.389 in experiment [4] (first compound 0.03162 µM); 0.357 in experiment [4] (first compound 0.1 µM); 0.217 in experiment [4] (first compound 0.3162 µM); 0.386 in experiment [4] (first compound 1 µM).
